Source: US10357036B2, “Compounds for controlling arthropods” (priority 2015, dated 2019)

Assays:
Type in all cases: in vivo
Details in all cases: 1280 g/ha, 3 weeks
[1] = tested on: Amaranthus retroflexus (AMARE); assay: Herbicidal activity, pre-emergence
From the text: (§1) Seeds of monocotyledonous and dicotyledonous weed plants and crop plants were placed in wood-fibre pots in sandy loam and covered with soil. The compounds according to the invention, formulated as emulsion concentrates (EC), were then applied to the surface of the covering soil as an emulsion at a water application rate equating to 600 to 800 Uha with addition of 0.2% wetting agent.
(§2) After the treatment, the pots were placed in a greenhouse and kept under good growth conditions for the test plants. The damage to the test plants was scored visually after a test period of 3 weeks by comparison with untreated controls (herbicidal activity in percent (%): 100% activity=the plants have died, 0% activity=like control plants). Here, for example, compounds No. Ia-17, Ia-37, Ia-28 and Ia-56 at an application rate of 1280 g/ha each show 100% efficacy against Amaranthus retroflexus (AMARE) and with the exception of Ia-56, even against Viola tricolor (VIOTR). Furthermore, compounds no. Ia-17, Ia-37 and Ia-28 at the same application rate show an 80% or better efficacy against Matricaria inodorae (MATIN) and Ia-17 and Ia-37 even against Stellaria media (STEME).

[2] = tested on: Viola tricolor (VIOTR); assay: Herbicidal activity, pre-emergence
From the text: as §1, §2

[3] = tested on: Matricaria inodora (MATIN); assay: Herbicidal activity, post-emergence
Description: (§3) Seeds of monocotyledonous and dicotyledonous weeds and crop plants were placed in sandy loam in wood-fibre pots, covered with soil and cultivated in a greenhouse under good growth conditions. 2 to 3 weeks after sowing, the test plants are treated at the one-leaf stage. The compounds according to the invention, formulated as emulsion concentrates (EC), were then sprayed onto the green plant parts as an emulsion at a water application rate equating to 600 to 800 Uha with addition of 0.2% wetting agent. After the test plants have been left to stand in the greenhouse under optimal growth conditions for 3 weeks, the efficacy of the preparations was assessed visually in comparison to untreated controls (herbicidal efficacy in percent (%): 100% activity=the plants have died, 0% activity=like control plants). For example, compounds No. Ia-17, Ia-28 and Ia-37 at an application rate of 1280 g/ha each show at least 100% efficacy against Amaranthus retroflexus (AMARE) and Viola tricolor (VOTR).

[4] = tested on: Abutilon theophrasti (ABUTH); assay: Herbicidal activity, post-emergence
Description: as §3

[5] = tested on: Stellaria meida (STEME); assay: Herbicidal activity, post-emergence
Description: as §3

CC(=O)NCc1cccc(-c2cnn(-c3c(Cl)cc(C(F)(C(F)(F)F)C(F)(F)F)cc3[S+](C)[O-])c2)c1 (centres unmarked) [Ia-17]
herbicidal efficacy [1]: 100% | herbicidal efficacy [2]: 100% | herbicidal efficacy [3]: ≥ 80% | herbicidal efficacy [4]: ≥ 80% | herbicidal efficacy [5]: ≥ 80%
